Series [1] in a line: Blood concentration of drug after rectal administration of suppositories to fasted dogs (bioassay). Particulars: rectal suppository, 100 mg in potency. Type of series: in vivo. On the procedure: (§1) The suppositories were administered rectally to dogs or rabbits fasted for 24 hours. After administration, blood or urine sampling was conducted at times intervals and the drug concentration in blood or urinary drug excretion was estimated by determining the activity concentration by the bioassay method.

Series [2] is described as follows: Urinary excretion of drug after rectal administration of suppositories to fasted rabbits (bioassay). Type of series: in vivo. Particulars: rabbit, 100 mg, rectal suppository, 100 mg in potency, read-out: Urinary excretion (0-6 hours). On the procedure: as §1
Setting [3] is: in vivo, base WITEPSOL H-5, additive Na caprate, 3%.
The mark [4] stands for this setting: dog, blood, 100 mg, base WITEPSOL H-5, additive Na caprate, 3% NIKKOL MYS-40, 4%, read-out: AUC.

Where two headings read alike, the source gives them in different places.

The term AUC denotes the area under the concentration-time curve, a measure of exposure.

On to `NCC[C@H](O)C(=O)N[C@@H]1C[C@H](N)[C@@H](O[C@H]2O[C@H](CN)[C@@H](O)[C@H](O)[C@H]2O)[C@H](O)[C@H]1O[C@H]1O[C@H](CO)[C@@H](O)[C@H](N)[C@H]1O` [Amikacin], for which the area under the curve (AUC) in series [1] (dog, in vivo, 100 mg, base WITEPSOL H-15, additive Na caprate, 3% NIKKOL BL-21, 3%, read-out: AUC) was determined as 17900 ng·h/mL; in series [1] (dog, in vivo, 100 mg, base WITEPSOL H-15, additive None, read-out: AUC) it was 1000 ng·h/mL. For the same compound, the dose excreted at 6 h in series [2] (in vivo, base WITEPSOL H-5, additive Na caprate, 3% NIKKOL MYS-40, 4%) came to 56%; in series [2] (in vivo, base WITEPSOL H-5, additive Na caprate, 3% Sodium carbonate, 4%), 55.5%; in series [2] (setting [3]), 35%.
Take `NC[C@H]1O[C@H](O[C@H]2[C@H](O)[C@@H](O[C@H]3O[C@H](CO)[C@@H](O)[C@H](N)[C@H]3O)[C@H](N)C[C@@H]2N)[C@H](N)[C@@H](O)[C@@H]1O` [Bekanamycin]: the dose excreted at 6 h in series [2] (urine, base WITEPSOL W-35, additive Glycerol monostearate, 3% Na caprate, 3%) turned out to be 48.5%; in series [2] (urine, base WITEPSOL W-35, additive Na caprate, 3% Disodium phosphate,3%), 40%; in series [2] (urine, base WITEPSOL W-35, additive Na caprate, 3%) it was 30.1%.
For `CO/N=C(\C(=O)N[C@@H]1C(=O)N2C(C(=O)O)=C(CSc3nc(=O)c(=O)[nH]n3C)CS[C@H]12)c1csc(N)n1` [Cefatriaxone], in series [1] (setting [4]), the AUC stood at 22200 ng·h/mL.
Take `CC(C)(O/N=C(\C(=O)N[C@@H]1C(=O)N2C(C(=O)[O-])=C(C[n+]3ccccc3)CS[C@H]12)c1csc(N)n1)C(=O)O` [Ceftazidime]: the exposure (AUC) in series [1] (dog, in vivo, 100 mg, base WITEPSOL H-5, additive Na caprate, 3% Lysine, 4%, read-out: AUC) was determined as 30100 ng·h/mL; in series [1] (dog, in vivo, 100 mg, base WITEPSOL H-5, additive Na caprate, 3% Na citrate, 4%, read-out: AUC) it was 27600 ng·h/mL; in series [1] (dog, in vivo, 100 mg, base WITEPSOL H-5, additive Na caprate, 3% Sodium carbonate, 4%, read-out: AUC), 29800 ng·h/mL; in series [1] (base WITEPSOL H-5, additive Na caprate, 3% Sodium carbonate, 4%), 30900 ng·h/mL.
With `NC[C@@H]1CC[C@@H](N)[C@@H](O[C@H]2[C@H](O)[C@@H](O[C@H]3O[C@H](CO)[C@@H](O)[C@H](N)[C@H]3O)[C@H](N)C[C@@H]2N)O1` [Dibekacin], the area under the curve (AUC) in series [1] (dog, blood, 100 mg, base WITEPSOL H-5, additive NIKKOL MYS-40, 4%, read-out: AUC) worked out at 1000 ng·h/mL; in series [1] (dog, blood, 100 mg, base WITEPSOL H-5, additive Na caprate, 3% NIKKOL BL-21, 4% Disodium hydrogen phosphate, 1%, read-out: AUC), 42000 ng·h/mL; in series [1] (dog, blood, 100 mg, base WITEPSOL H-5, additive Na caprate, 3% NIKKOL BL-21, 4%, read-out: AUC), 37000 ng·h/mL; in series [1] (dog, blood, 100 mg, base WITEPSOL H-5, additive Na caprate, 3% NIKKOL MYS-40, 4% Sodium carbonate, 4%, read-out: AUC), 39900 ng·h/mL; in series [1] (setting [4]), 27400 ng·h/mL; in series [1] (dog, blood, 100 mg, base WITEPSOL H-5, additive Na caprate, 3% Sodium carbonate, 4%, read-out: AUC) it was 24400 ng·h/mL. In addition, the AUC came to 14400 ng·h/mL in series [1] (dog, blood, 100 mg, base WITEPSOL H-5, additive Na caprate, 3%, read-out: AUC) and 800 ng·h/mL in series [1] (dog, blood, 100 mg, base WITEPSOL H-5, additive None, read-out: AUC).
As to `CNC[C@@H]1CC[C@@H](N)[C@@H](O[C@H]2[C@H](O)[C@@H](O[C@H]3OC[C@](C)(O)[C@H](NC)[C@H]3O)[C@H](N)C[C@@H]2N)O1` [Micronomicin], the dose excreted at 6 h in series [2] (in vivo, base WITEPSOL H-5, additive Na caprate, 3% Arginine Na, 4%) is 48.2%; in series [2] (in vivo, base WITEPSOL H-5, additive Na caprate, 3% NIKKOL BL-21, 4%), 50.3%; in series [2] (setting [3]), 39.2%.
For the compound `CCN[C@@H]1C[C@H](N)[C@@H](O[C@H]2OC(CN)=CC[C@H]2N)[C@H](O)[C@H]1O[C@H]1OC[C@](C)(O)[C@H](NC)[C@H]1O` [Netilmicin], the dose excreted at 6 h in series [2] (urine, base WITEPSOL H-5, additive Na caprate, 3% Lysine, 4%) is 48%; in series [2] (urine, base WITEPSOL H-5, additive Na caprate, 3% NIKKOL TO-10M, 4%), 52.6%; in series [2] (urine, base WITEPSOL H-5, additive Na caprate, 3%), 40%.
In the case of `CN[C@@H]1[C@@H](O)[C@@H](O[C@@H]2[C@@H](O)[C@H](O[C@H]3OC(CN)=CC[C@H]3N)[C@@H](N)C[C@H]2N)OC[C@]1(C)O` [Sisomicin], the dose excreted at 6 h in series [2] (urine, base WITEPSOL H-15, additive Na caprate, 2% NIKKOL BL-25, 4%) came out at 51.6%; in series [2] (urine, base WITEPSOL H-15, additive Na caprate, 2%), 30.8%; in series [2] (urine, base WITEPSOL H-15, additive Na caprate, 3% Trisodium phosphate,4%), 55%.
Turning to `NC[C@H]1O[C@H](O[C@H]2[C@H](O)[C@@H](O[C@H]3O[C@H](CO)[C@@H](O)[C@H](N)[C@H]3O)[C@H](N)C[C@@H]2N)[C@H](N)C[C@@H]1O` [Tobramycin], the dose excreted at 6 h in series [2] (in vivo, base WITEPSOL W-35, additive Na caprate, 2% NIKKOL BL-9, 4%) is 53.8%; in series [2] (in vivo, base WITEPSOL W-35, additive Na caprate, 2%), 41.6%; in series [2] (in vivo, base WITEPSOL W-35, additive Na caprate, 3% Disodium tatrate, 4% NIKKOL BL-9, 4%), 49.2%.
As to Fortimicin, the AUC in series [1] (base WITEPSOL H-5, additive Na caprate, 3%) is 14800 ng·h/mL; in series [1] (base WITEPSOL H-5, additive Na caprate, 3% NIKKOL BL-21, 4%), 30000 ng·h/mL; in series [1] (base WITEPSOL H-5, additive Na caprate, 3% NIKKOL MYS-40, 4%) it was 21700 ng·h/mL; in series [1] (base WITEPSOL H-5, additive Na caprate, 3% Sodium carbonate, 2%), 21700 ng·h/mL; in series [1] (base WITEPSOL H-5, additive None), 1200 ng·h/mL.

(Values after patent EP0126348A2, “Composition for rectal administration and method of promoting rectal drug absorption” (priority 1983, dated 1984).)
